Reference: patent US11129807B2, “Methods of treating schizophrenia” (Sunovion Pharmaceuticals Inc., priority 2017, dated 2021)

What was measured:
[1] = tested on: PCP-Induced Hyperactivity Responses in Mice; experiment: PCP-induced hyperactivity (open field) in mice;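 further: plus means significant inhibition of PCP hyperactivity at P below 0.05 and minus means none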; assay type: in vivo; conditions: male C57Bl/6J mice, vs. vehicle + PCP
Experimental: (§1) Anti-psychotic like activity of the compounds was evaluated in mice using the PCP hyperactivity and Pre-Pulse Inhibition (PPI) models of schizophrenia.
(§2) Methods: Animals: Male C57Bl/6J mice from Jackson Laboratories (Bar Harbor, Me.) were used. Upon receipt, mice were assigned unique identification numbers (tail marked) and were group housed with 4 mice per cage in OptiMICE ventilated cages. All animals remained housed in groups of four during the remainder of the study. All mice were acclimated to the colony room for at least two weeks prior to testing. During the period of acclimation, mice were examined on a regular basis, handled, and weighed to assure adequate health and suitability. Animals were maintained on a 12/12 light/dark cycle. The room temperature was maintained between 20 and 23° C. with a relative humidity maintained between 30% and 70%. Chow and water were provided ad libitum for the duration of the study. In each test, animals were randomly assigned across treatment groups.
The analysis was configured to divide the open field into a center and periphery zone. Distance traveled was measured from horizontal beam breaks as the mouse moved whereas rearing activity was measured from vertical beam breaks.
Mice were injected with vehicle, test compound, or clozapine (1 mg/kg; i.p) and placed in the OF chambers for 30 min measurement of baseline activity. Mice were then injected with either water or PCP (5 mg/kg; i.p) and placed back in the OF chambers for a 60-minute session. At the end of each OF test session the OF chambers were thoroughly cleaned.

[2] = tested on: Pre-pulse Inhibition (PPI) in Mice; experiment: Pre-pulse inhibition (PPI) of startle in mice;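 further: plus grades count prepulse intensities with significant PPI increase at P below 0.05 and minus means no change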; assay type: in vivo; conditions: 30 min prior to PPI test, male C57Bl/6J mice, vs. vehicle
Experimental: as §1, §2
Prepulse Inhibition of Startle: The acoustic startle is an unconditioned reflex response to an external auditory stimulus. Prepulse inhibition of startle (PPI) refers to the reduction in the startle response caused by the presentation of a low-intensity auditory stimulus prior to the startle stimulus. The PPI paradigm is used for the study of schizophrenia and antipsychotic action due to the similarities between the results from human and rodent studies. […] Various psychotomimetic drugs such as PCP can disrupt PPI. In mice, antipsychotic drugs such as clozapine can reverse the disruption of PPI induced by PCP.
Mice were placed in the PPI chambers (Med Associates) for a 5 min session of white noise (70 dB) habituation. After the habituation period the test session was initiated. The session started with a habituation block of 6 presentations of the startle stimulus alone, followed by 10 PPI blocks, each of which consisted of 6 different types of trials. Trial types were: ‘null’ (no stimuli), ‘startle’ (120 dB), ‘startle plus prepulse’ (4, 8 and 12 dB over background noise, i.e., 74, 78 or 82 dB) and ‘prepulse’ (82 dB). Trial types were presented in a random order within each block. Each trial started with a 50 ms stimulus-free period during which baseline movements were recorded. This was followed by a subsequent 20 ms period during which the prepulse stimulus was presented and responses to the prepulse measured. After a further 100 ms period, the startle stimulus was presented for 40 ms and responses recorded for 100 ms from startle onset. Responses were sampled every ms. The inter-trial interval was variable with an average of 15 s (range from 10 to 20 s). In ‘startle’ trials the basic auditory startle response was measured. The basic startle response was calculated as the mean startle response of all ‘startle’ trials (i.e., excluding the first habituation block). In ‘startle plus prepulse’ trials the degree of inhibition of the normal startle was calculated and expressed as a percentage of the basic startle response.
Mice were treated with vehicle, haloperidol (1 mg/kg; i.p) or test compound 30 min prior to PPI test. The PPI enclosures were cleaned following each test.

[3] = 10 mg/kg Compound + PCP (5 mg/kg; i.p)
[4] = 30 mg/kg Compound + PCP (5 mg/kg; i.p)
[5] = 100 mg/kg Compound + PCP (5 mg/kg; i.p)
[6] = 0.3 mg/kg Compound + PCP (5 mg/kg; i.p)
[7] = 1 mg/kg Compound + PCP (5 mg/kg; i.p)
[8] = 3 mg/kg Compound + PCP (5 mg/kg; i.p)

SMILES | Total Distance Traveled (cm) [1, 3] | Total Distance Traveled (cm) [1, 4] | Total Distance Traveled (cm) [1, 5] | Effect on Pre-pulse Inhibition (PPI) ([2]; 10 mg/kg) | Effect on Pre-pulse Inhibition (PPI) ([2]; 30 mg/kg) | Effect on Pre-pulse Inhibition (PPI) ([2]; 100 mg/kg) | Total Distance Traveled (cm) [1, 6] | Total Distance Traveled (cm) [1, 7] | Total Distance Traveled (cm) [1, 8] | Effect on Pre-pulse Inhibition (PPI) ([2]; 3 mg/kg)
NCC1OCCc2sccc21 (stereo not drawn) [Compound 1] | + | + | − | − | +++ | +++ |  |  |  | 
NC[C@@H]1OCCc2sccc21 [Compound 2] | + | + | − | − | − | +++ |  |  |  | 
NC[C@H]1OCCc2sccc21 [Compound 3] | − | − | − | +++ | +++ | − |  |  |  | 
CNCC1OCCc2sccc21 (stereo not drawn) [Compound 4] | + | + | + | +++ | − | +++ | + | + | + | 
CNCC1OCCc2sc(C)cc21 (stereo not drawn) [Compound 5] | + | + | + | − | +++ | +++ |  |  |  | 
CCc1cc2c(s1)CCOC2CNC (stereo not drawn) [Compound 10] | + | + | + | +++ | +++ | +++ |  |  |  | 
CCNCC1OCCc2sccc21 (stereo not drawn) [Compound 13] |  |  |  | − | − | +++ |  |  |  | 
CNC[C@@H]1OCCc2sccc21 [Compound 27] | + | + | + | − | − | − | − | − | − | 
CNC[C@H]1OCCc2sccc21 [Compound 28] | + | + | + | − | +++ | +++ | + | + | + | 
CNC[C@@H]1OCCc2sc(C)cc21 [Compound 57] | + | + | + | − | − | ++ |  |  |  | 
CNC[C@H]1OCCc2sc(C)cc21 [Compound 58] | + | + | + | +++ | + | +++ |  |  |  | 
CCc1cc2c(s1)CCO[C@H]2CNC [Compound 75] | + | − | + | − | − | − |  |  |  | 
CCc1cc2c(s1)CCO[C@@H]2CNC [Compound 76] | − | − | + | − | − | − |  |  |  | 
CNCC1OCCc2scc(C)c21 (stereo not drawn) [Compound 78] | + | + | + | − | − | − |  |  |  | 
c1cc2c(s1)CCO[C@H]2[C@H]1CCCN1 [Compound 102] | + | + |  | − | − |  | − | + | + | −
c1cc2c(s1)CCO[C@@H]2[C@@H]1CCCN1 [Compound 119] | + | + | + |  |  |  |  |  |  | 
NC[C@@H]1OCCc2ccsc21 [Compound 127] | + | − |  | − | +++ |  | − | − | + | +++
CNC[C@@H]1OCCc2scc(C)c21 [Compound 130] | + | + | + | − | − |  | − | − | + | −
CNC[C@H]1OCCc2scc(C)c21 [Compound 131] |  |  |  | − | − |  | − | + | + | −
CNCC1OCCc2c(C)csc21 (stereo not drawn) [Compound 140] | − | − | + | − | − | − |  |  |  | 
[2H]C([2H])([2H])NC[C@H]1OCCc2sccc21 [Compound 158] | + | + | + | − | − | +++ |  | + | + | −
Cc1csc2c1CCO[C@@H]2CN [Compound 170] | − | − |  | +++ | +++ |  | − | − | − | −
CNC[C@@H]1OCCc2c(C)csc21 [Compound 171] | − | + |  | − | − | +++ | − | − | − | −
